Data on 1 compound can be found in patent US20240374567A1, “Combination Treatments for Cancer Patients and Methods for Identifying Same” (Scandion Oncology A/S, priority 2021, published 2024).

For the assay, the system named is UGT1A1. In words: Clinical study of SCO-101 with FOLFIRI: serum bilirubin and bilirubin index after SCO-101. The format is in vivo, human. As to the method:
The term “bilirubin index” as used herein or “bilirubin index score” which are used interchangeably, refer to a patient's rate of bilirubin normalization subsequent to administration of an UGT1A1 inhibitor to the patient. Herein, the bilirubin index is determined subsequent to administration of an UGT1A1 inhibitor to the patient for a number of consecutive days, such as 1, 2, 3, 4, 5, or 6, preferably 6 days. Based on 6 consecutive days of administration with an UGT1A1 inhibitor, the bilirubin index is determined as the bilirubin serum or plasma concentration (unconjugated or total bilirubin) on day 12 divided with the bilirubin serum or plasma concentration on day 7 and thus is an indicator of how much the patients' UGT1A1 activity has normalized following cessation of SCO-101 treatment and can be determined using bilirubin as a surrogate marker.
Bilirubin: Blood sampling for analysis of bilirubin (total, unconjugated and conjugated) were withdrawn at Screening (up to 4 weeks prior start of treatment), day 5, day 7 and day 12 in the first treatment cycle.
Likely, the increase in unconjugated bilirubin is mediated through inhibition of the enzyme UDP-glucuronosyltransferase 1 family, polypeptide A1 (UGT1A1). UGT1A1 is an enzyme responsible for conjugation of poorly soluble endo- and xenobiotics making them more soluble and possible to excrete. UGT1A1 is the primary enzyme responsible for conjugation of bilirubin and metabolism of Irinotecan's active metabolite SN-38. The bilirubin index score is the bilirubin serum concentration (unconjugated or total bilirubin) on day 12 divided with the bilirubin serum concentration on day 7 and thus is an indicator of how much the patients' UGT1A1 activity has normalized following cessation of SCO-101 treatment, and can be determined using bilirubin as a surrogate marker. In FIG. 2, an overview of the bilirubin index for all patients is included. The mean bilirubin index score for the six RAS wild type patients is approximately 0.15 (lowest 0.04, highest 0.28) whereas the mean score for the six RAS mutated patients is 0.59 (lowest 0.25, highest 0.76). Thus, there is a strong indication that the bilirubin index can predict a patient's tolerability to treatment.

For the compound `O=C(Nc1cc(C(F)(F)F)cc(C(F)(F)F)c1)Nc1ccc(Br)cc1-c1nnn[nH]1` [SCO-101], the “reversibility of bilirubin increase / UGT1A1 inhibition” value (after discontinuation of SCO-101 treatment) is on record as “completely reversible”. In addition, the “bilirubin index (bilirubin serum concentration on day 12 divided with day 7)” value (patients with RAS mutation, cohort 1 (150 mg SCO-101), cycle 1) is given as “above 0.4”. Under “patients, SCO-101 days 1 to 6”, the “effect on unconjugated bilirubin serum concentration” value is “specific and dose dependent increase”. Moreover, where the note is “six RAS mutated patients”, the “highest bilirubin index score” value is listed as 0.76, the “lowest bilirubin index score” value worked out at 0.25 and the “mean bilirubin index score” value is given as 0.59. Under “six RAS wild type patients”, the “highest bilirubin index score” value came to 0.28, the “lowest bilirubin index score” value stood at 0.04 and the “mean bilirubin index score” value is “approximately 0.15”.
